Data taken from patent US9644010B2, “LY6K epitope peptides for TH1 cells and vaccines containing the same” (ONCOTHERAPY SCIENCE, INC., priority 2012, dated 2017).
Entries after “also recorded” stand apart in the source; their conditions may differ.

How the values were obtained:
[1] = test system: LY6K-specific T cells in PBMCs; experiment: Assessment of LY6K-specific CD4+ T cell responses in head and neck cancer patients, IFN-gamma ELISPOT after 1 week stimulation of PBMCs with LPs; assay type: cell-based, human
Experimental: Two phase I clinical trials of peptide-based cancer immunotherapy were reviewed and approved by the Institutional Review Board of Kumamoto University, Kumamoto, Japan (approval no. 841 and 1124). […] Tumor stage and grading were determined according to the International Union against cancer (UICC) clarification. The patients suffered from inoperable advanced head and neck cancer with recurrent or metastatic tumors who had been resistant to standard therapy were enrolled in one trial (841). The patients suffered from operable advanced head and neck cancer were enrolled in another trial (1124). These patients in this trial (1124) had been treated with postoperative peptide-vaccine immunotherapy. The patients suffered from inoperable advanced HNMT with recurrent or metastatic tumors and were resistant to standard therapy; they were enrolled in the trial under University Hospital Medical Information Network Clinical Trials Registry (UMIN-CTR) number 000008379 (CTR-8379). HNMT patients with radical resection were enrolled in the trial under UMIN-CTR number 000008380 (CTR-8380). In the latter trial, HNMT patients were treated with postoperative peptide vaccine combined with S-1, ifosfamide, or doxorubicin. […]
The PBMCs from cancer patients or healthy donors were cultured with 10 micro-g/ml of mixture of LY6K-derived LPs in a 24-well plate (2×10^6/well) in AIM-V supplemented with 5% human decomplemented plasma and IL-7 and IL-2 were added at day 0 and day 2. After 1 week of cell culture, the PBMCs were collected and the presence of LY6K-specific T cells was measured by IFN-gamma ELISPOT assays. […] The number of specific T cells expressed as spot-forming cells/10^5 cells was calculated after subtracting negative control values (background). […] Responses were evaluated to be positive when IFN-gamma were more than 10 and more than 2-fold the background. […] And responses were evaluated to be positive when IFN-gamma were more than 15 and more than 2-fold the background. […]

[2] = test system: LY6K-A24 (177-186) SP-specific CD8^+ T cells; experiment: Stimulation of healthy donor PBMC with the LY6K (172-191) long peptide, tetramer staining; assay type: cell-based, human; conditions: PBMC of HLA-A24+ healthy donors; LP 7 micro-M on days 0 and 7, 2 weeks, no cytokine; listed as LY6K (172-191) LP
Experimental: To assess the induction of LY6K-A24 (177-186) SP-specific CTLs from HLA-A24-positive donors by the simulation with LY6K (172-191) LP in vitro, PBMC (2×10^6/well of 24-well plates) were incubated with LY6K (172-191) LP (7 microM) for 2 weeks without addition of any cytokine. On day 0 and 7, LY6K (172-191) LP (7 microM) was added, then on day 14 of in vitro stimulation with LY6K (172-191) LP, the cells were harvested, stained with a PE-labeled tetramer of the HLA-A24 (A*24:02)/LY6K-A24 (177-186) complex in combination with a FITC-labeled anti-human CD8 mAb, and analyzed by flow cytometry.
Expression of LY6K-A24 (177-186) SP specific T cell receptor (TCR) was examined on a FACSCalibur (BD Biosciences) using a PE-labeled tetramer of the HLA-A*24:02/LY6K-A24 (177-186) SP complex (MBL, Nagoya, Japan) according to the manufacturer's instructions. A PE-labeled tetramer of the HLA-A*24:02/HIV-A24 (RYLRDQQLL: SEQ ID NO: 4) complex was used as a negative control.
To assess induction of LY6K-A24 (177-186) SP-specific CTLs from HLA-A24^+ donors (HDL1, HDL3, and HDL4) by simulation with LY6K (172-191) LP in vitro, PBMCs (2×10^6 cells/well of 24-well plates) were incubated with LY6K (172-191) LP (7 microM) for 2 weeks without addition of cytokines. […]

**Q.** KCCKIRYCNLEGPPINSSVF [LY6K (172-191)] was tested. Which “number of LP-specific spots in vaccinated patients compared with HNMT patients before vaccination” value ([1]; FIG. 8D, Mann-Whitney U test) did it give?
**A.** The value was “significantly larger”.

**Q.** And the “numbers of specific IFN-gamma spots in vaccinated patients compared with healthy donors” value ([1]; FIG. 8D, Mann-Whitney U test)?
**A.** The value was “significantly larger”.

**Q.** What about the “frequency of LP-specific immune response in HNMT patients after vaccination compared with before vaccination” value ([1]; FIG. 8E, Fisher's exact probability test) of the same sequence?
**A.** Its value is “significantly higher”.

**Q.** What about the “induction/expansion of HLA-A24-restricted LY6K-A24 (177-186) SP-specific CD8+ T cells (tetramer)” value [2] of the same sequence?
**A.** Its value is “induced an expansion; also recorded: significantly induced”.
